Among the test systems are ACHN renal; HS 578T breast; IGROV1 ovarian; KM12 colon; M14 melanoma; MALME-3M melanoma; MDA-MB-231 breast; MOLT-4 leukemia; NCI-H522 lung; NCI/ADR-RES ovarian; OVCAR-3 ovarian; OVCAR-4 ovarian; PC-3 prostate; SNB-19 CNS; SW-620 colon; T-47D breast; UACC-257 melanoma; UO-31 renal; K-562 leukemia; NCI-H226 lung.
Assay in all cases: growth of human tumour cells (NCI), 48 h

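Protocol summary: plate cells (96-well), add compound at 5 concentrations, incubate 48 h, interpolate endpoints linearly. TGI marks complete inhibition of growth.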

As to `CCOC(=O)C1C(c2ccc(OC)cc2)c2c([nH][nH]c2=O)CC1(C)O` (stereo not drawn), the TGI in the assay on ACHN renal, in the assay with HS 578T breast, with IGROV1 ovarian, with KM12 colon, in the assay with M14 melanoma and in the assay on MALME-3M melanoma was > 100 µM throughout. For the same molecule, the TGI in the assay on MDA-MB-231 breast, in the assay on MOLT-4 leukemia, with NCI-H522 lung, in the assay on NCI/ADR-RES ovarian, in the assay on OVCAR-3 ovarian and in the assay with OVCAR-4 ovarian was > 100 µM throughout. Moreover, the TGI in the assay on PC-3 prostate, with SNB-19 CNS, with SW-620 colon, with T-47D breast, with UACC-257 melanoma and in the assay on UO-31 renal was > 100 µM in each case.

With `Nc1cccc(OCC2CCCN3CCCCC23)c1` (stereo not drawn), the TGI in the assay with ACHN renal was 31.9 µM; with HS 578T breast it was 35.2 µM; with K-562 leukemia, 76.1 µM; in the assay on KM12 colon, 32.4 µM; with M14 melanoma, 41.4 µM; in the assay on MALME-3M melanoma it was 40.4 µM. Also, the TGI is 32.6 µM with MDA-MB-231 breast; 39.2 µM with MOLT-4 leukemia; > 100 µM with NCI-H226 lung; 38.3 µM with NCI/ADR-RES ovarian; 38.2 µM in the assay with OVCAR-3 ovarian; 47.2 µM in the assay on OVCAR-4 ovarian. Also, the TGI turned out to be 37.7 µM in the assay on PC-3 prostate; 32.8 µM with SNB-19 CNS; 39.4 µM in the assay on SW-620 colon; 33.8 µM with T-47D breast; 34.3 µM in the assay with UACC-257 melanoma; 75.2 µM in the assay with UO-31 renal.

With `COc1ccc(N=Nc2ccc3oc(=O)c(C(=O)Nc4ccccc4C)cc3c2)cc1`, the TGI with ACHN renal, in the assay on HS 578T breast, with IGROV1 ovarian, in the assay with KM12 colon, in the assay with M14 melanoma and in the assay on MALME-3M melanoma was > 10 µM each time. In addition, the TGI in the assay with MDA-MB-231 breast, with MOLT-4 leukemia, in the assay with NCI-H226 lung, in the assay on NCI-H522 lung, in the assay on NCI/ADR-RES ovarian and with OVCAR-3 ovarian was > 10 µM each time. Moreover, the TGI in the assay with OVCAR-4 ovarian, in the assay on PC-3 prostate, in the assay with SW-620 colon, with T-47D breast, in the assay on UACC-257 melanoma and in the assay with UO-31 renal was > 10 µM each time.

`c1ccc(Cn2c(-c3ccc(-c4ccccc4)cc3)cc3ccccc32)cc1`: the TGI with ACHN renal, with HS 578T breast, in the assay on IGROV1 ovarian, in the assay on KM12 colon, with M14 melanoma and with MALME-3M melanoma was > 100 µM throughout. Moreover, the TGI in the assay on MDA-MB-231 breast, in the assay on MOLT-4 leukemia, with NCI-H226 lung, with NCI-H522 lung, in the assay with NCI/ADR-RES ovarian and in the assay with OVCAR-3 ovarian was > 100 µM throughout. In addition, the TGI in the assay on OVCAR-4 ovarian, in the assay with PC-3 prostate, in the assay on SNB-19 CNS, in the assay on SW-620 colon, with T-47D breast and in the assay with UACC-257 melanoma was > 100 µM throughout. For the same molecule, in the assay on UO-31 renal, the TGI is > 100 µM.

On to `O=C(CC(C(=O)c1ccsc1)c1ccsc1)c1ccsc1` (stereo not drawn), for which the TGI in the assay with ACHN renal, in the assay with HS 578T breast, in the assay with IGROV1 ovarian, in the assay on K-562 leukemia, in the assay with KM12 colon and in the assay with M14 melanoma was > 100 µM each time. Besides, the TGI in the assay with MALME-3M melanoma, in the assay on MDA-MB-231 breast, in the assay on MOLT-4 leukemia, in the assay with NCI-H226 lung, with NCI/ADR-RES ovarian and with OVCAR-4 ovarian was > 100 µM throughout. Moreover, the TGI in the assay on PC-3 prostate, with SNB-19 CNS, with SW-620 colon, in the assay on T-47D breast, with UACC-257 melanoma and with UO-31 renal was > 100 µM each time.

For `Cc1cn(Cc2cccc(C3=NCCCN3)c2)c(=O)n(Cc2cccc(C3=NCCCN3)c2)c1=O`, the TGI in the assay on ACHN renal, in the assay on HS 578T breast, in the assay with IGROV1 ovarian, in the assay on K-562 leukemia, with KM12 colon and in the assay with M14 melanoma was > 100 µM in each case. Besides, the TGI in the assay with MALME-3M melanoma, in the assay on MDA-MB-231 breast, in the assay on MOLT-4 leukemia, in the assay on NCI-H522 lung, in the assay on NCI/ADR-RES ovarian and in the assay with OVCAR-3 ovarian was > 100 µM throughout. For the same molecule, the TGI with OVCAR-4 ovarian, in the assay on PC-3 prostate, in the assay on SNB-19 CNS, with SW-620 colon, with T-47D breast and with UACC-257 melanoma was > 100 µM each time. The TGI in the assay on UO-31 renal was > 100 µM.

As to `COC(=O)CN1C(=O)C2(C(=O)OC)OC1(c1ccc([N+](=O)[O-])cc1)C1C(=O)N(c3ccccc3)C(=O)C12` (stereo not drawn), the TGI with ACHN renal, in the assay with HS 578T breast, with IGROV1 ovarian, with KM12 colon, with M14 melanoma and with MALME-3M melanoma was > 100 µM in each case. Further, the TGI with MDA-MB-231 breast, in the assay on MOLT-4 leukemia, with NCI-H226 lung, in the assay on NCI-H522 lung, with NCI/ADR-RES ovarian and with OVCAR-4 ovarian was > 100 µM in each case. Also, the TGI in the assay on PC-3 prostate, in the assay on SNB-19 CNS, in the assay with SW-620 colon, with T-47D breast, with UACC-257 melanoma and in the assay with UO-31 renal was > 100 µM throughout.
